pKi: −log10 of the molar value.
Columns and labels:
[1] = target: T1, HNE (elastase derived from human sputum, HSE) (Homo sapiens, UniProt P08246); assay: In vitro inhibition of elastase (rate assay, N-methoxysuccinyl-Ala-Ala-Pro-Val-p-nitroaniline substrate); format: biochemical; conditions: inhibition activity against HNE; IC50 by log-logit method converted to K1 by Dixson plot; pH 8.0, 37° C.
T1 construct: The elastase used in the protocol was derived from human sputum (HSE); purchased Elastin Product Co., Inc, Missouri, USA SE-563; host or cells: human sputum (natural source)
T1 sequence (P08246 30-267): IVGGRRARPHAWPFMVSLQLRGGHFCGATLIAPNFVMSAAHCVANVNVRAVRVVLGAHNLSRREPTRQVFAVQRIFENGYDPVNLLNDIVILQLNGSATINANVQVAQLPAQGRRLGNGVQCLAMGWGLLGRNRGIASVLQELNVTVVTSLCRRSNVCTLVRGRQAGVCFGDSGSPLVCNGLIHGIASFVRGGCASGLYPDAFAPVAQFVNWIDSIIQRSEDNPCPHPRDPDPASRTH

[2] = tested on: elastase activity in whole blood; assay: Ex vivo inhibition of elastase (whole blood stimulated with opsonized zymosan, after oral administration); format: in vivo; conditions: blood sampled 60 minutes after administration, 24 hour fasted animal; for Percent Inhibition at Indicated Dosage, 3 mg/kg: 3 mg/kg oral; for Percent Inhibition at Indicated Dosage, 10 mg/kg: 10 mg/kg oral; for Percent Inhibition at Indicated Dosage, 30 mg/kg: 30 mg/kg oral
Description: Sixty (60) minutes after the oral administration of an inhibitor with an appropriate vehicle, a blood sample (0.9 ml) is collected through the abdominal aorta by a syringe containing 0.1 ml of a 3.8% sodium citrate solution.
The blood sample is processed as follows: 60 μl of (final 0.1-1 mg/ml) a suspended solution of opsonized zymosan in Hank's buffer is added to the preincubated whole blood (540 μl) for 5 minutes at 37° C., and the resulting mixture is incubated for 30 minutes at the same temperature. The reaction is terminated by immersing the test tube into ice water. The reaction mixture is then centrifuged at 3,000 rpm for 10 minutes at 4° C. Twenty (20) μl of each of the resulting supernatant (the Sample) is measured for elastase activity.
The mixture consisting of the following components is incubated for 24 hours at 37° C., and then optical density is measured at 405 nm:
A test sample mixed with 1-methyl-2-pyrrolidone instead of the substrate is regarded as Substrate (−). A test sample mixed with saline instead of the Sample is regarded as Blank. The remaining elastase activity in the Sample is calculated according to the following: […]
optical density of Substrate (+)−(optical density of Substrate (−)+optical density of Blank)
as a total production of p-nitroaniline over 24 hours based on a standard curve for the amount of p-nitroaniline.
An average activity is calculated based on the test sample of 5-6 animals. An agent at 3, 10 or 30 mg/kg is orally given by a forced administration to a 24 hour fasted animal at 60 minutes before the blood sampling. Optical density is measured by SPECTRA MAX 250 (Molecular Devices).

Row | SMILES | pKi [1] | Percent Inhibition at Indicated Dosage, 3 mg/kg [2] [%] | Percent Inhibition at Indicated Dosage, 10 mg/kg [2] [%] | Percent Inhibition at Indicated Dosage, 30 mg/kg [2] [%]
1 | CC(C)C(NC(=O)Cn1c(-c2ccc(F)cc2)nccc1=O)C(=O)c1nnc(C(C)(C)c2ccc3c(c2)OCO3)o1 (racemic) [Example 10, 2-[6-Oxo-2-(4-fluorophenyl)-1,6-dihydro-1-pyrimidinyl]-N-[1-(2-[5-(α,α-dimethyl-3,4-methylenedioxybenzyl)-1,3,4-oxadiazolyl]carbonyl)-2-(R,S)-methylpropyl]acetamide] | 8.82 | – | – | –
2 | CC(C)C(NC(=O)Cn1c(-c2ccccc2)nccc1=O)C(=O)c1nnc(C(C)(C)c2ccccc2)o1 (racemic) [Example 12, 2-[6-Oxo-2-phenyl-1,6-dihydro-1-pyrimidinyl]-N-[1-(2-[5-(α,α-dimethylbenzyl)-1,3,4-oxadiazolyl]carbonyl)-2-(R,S)-methylpropyl]acetamide] | 8.74 | – | – | –
3 | CC(C)C(NC(=O)Cn1c(-c2ccc(F)cc2)nccc1=O)C(=O)c1nnc(C(C)(C)c2ccccc2)o1 (racemic) [Example 11, 2-[6-Oxo-2-(4-fluorophenyl)-1,6-dihydro-1-pyrimidinyl]-N-[1-(2-[5-(α,α-dimethylbenzyl)-1,3,4-oxadiazolyl]carbonyl)-2-(R,S)-methylpropyl]acetamide] | 8.27 | – | – | –
4 | COC(=O)NC(C(=O)N1CCCC1C(=O)NC(C(=O)c1nnc(C(C)(C)C)o1)C(C)C)C(C)C [Example 1, Methyloxycarbonyl-L-valyl-N-[1-(2-[5-(tert-butyl)oxadiazolyl]carbonyl)-2-(S)-methylpropyl]-L-prolinamide] | 8.52 | – | – | –
5 | COC(=O)NC(C(=O)N1CCCC1C(=O)NC(C(=O)c1nnc(C(C)(C)c2ccccc2)o1)C(C)C)C(C)C [Example 2, Methyloxycarbonyl-L-valyl-N-[1-(2-[5-(α,α-dimethylbenzyl)oxadiazolyl]carbonyl)-2-(S)-methylpropyl]-L-prolinamide] | 8.88 | 7 | 9 | 62

These reach a higher pKi [1]. Values come first.

Row | pKi [1] | SMILES | Percent Inhibition at Indicated Dosage, 3 mg/kg [2] [%] | Percent Inhibition at Indicated Dosage, 10 mg/kg [2] [%] | Percent Inhibition at Indicated Dosage, 30 mg/kg [2] [%]
6 | 8.97 | CC(C)C(NC(=O)Cn1c(-c2ccccc2)ncc(N)c1=O)C(=O)c1nnc(C(C)(C)c2ccc3c(c2)OCO3)o1 (racemic) [Example 8, 2-[5-Amino-6-oxo-2-phenyl-1,6-dihydro-1-pyrimidinyl]-N-[1-(2-[5-(α,α-dimethyl-3,4methylenedioxybenzyl)-1,3,4-oxadiazolyl]carbonyl)-2-(R,S)-methylpropyl]acetamide] | – | – | –
7 | 9.47 | CC(C)C(NC(=O)Cn1c(-c2ccccc2)nccc1=O)C(=O)c1nnc(C(C)(C)c2ccc3c(c2)OCO3)o1 (racemic) [Example 9, 2-[6-Oxo-2-phenyl-1,6-dihydro-1-pyrimidinyl]-N-[1-(2-[5-(α,α-dimethyl-3,4-methylenedioxybenzyl)-1,3,4-oxadiazolyl]carbonyl)-2-(R,S)-methylpropyl]acetamide] | – | – | –
8 | 9.62 | COC(=O)NC(C(=O)N1CCCC1C(=O)NC(C(=O)c1nnc(C(C)(C)c2ccc3c(c2)OCO3)o1)C(C)C)C(C)C [Example 3, Methyloxycarbonyl-L-valyl-N-[1-(2-[5-(α,α-dimethyl-3,4-methylenedioxybenzyl)-1,3,4-oxadiazolyl]carbonyl)-2-(S)-methylpropyl]-L-prolinamide] | 44 | 69 | 99

— patent US6548638B2, “Peptoid and nonpeptoid containing α-keto oxadiazoles as serine protease inhibitors” (Cortech, Inc., priority 1998, dated 2003)
